Experimental data as given in patent publication US11492405B2, “Reducing systemic regulatory t cell levels or activity for treatment of disease and injury of the CNS” (Yeda Research and Development Co. Ltd, priority 2014, dated 2022).
Entries after “also recorded” stand apart in the source; their conditions may differ.

How the values were obtained:
Format in all cases: in vivo, mouse
5XFAD AD-Tg mice [1] = test: RT-qPCR of choroid plexus (CP) in 5XFAD AD-Tg mice
Experimental: Total RNA of the hippocampal dentate gyrus (DG) was extracted with TRI Reagent (Molecular Research Center) and purified from the lysates using an RNeasy Kit (Qiagen). Total RNA of the choroid plexus was extracted using an RNA MicroPrep Kit (Zymo Research). mRNA (1 μg) was converted into cDNA using a High Capacity cDNA Reverse Transcription Kit (Applied Biosystems). The expression of specific mRNAs was assayed using fluorescence-based quantitative real-time PCR (RT-qPCR). RT-qPCR reactions were performed using Fast-SYBR PCR Master Mix (Applied Biosystems). Quantification reactions were performed in triplicate for each sample using the standard curve method. Peptidylprolyl isomerase A (ppia) was chosen as a reference (housekeeping) gene. The amplification cycles were 95° C. for 5 s, 60° C. for 20 s, and 72° C. for 15 s. […] For ifn-γ and ppia gene analysis, the cDNA was pre-amplified in 14 PCR cycles with non-random PCR primers, thereby increasing the sensitivity of the subsequent real-time PCR analysis, according to the manufacturer's protocol (PreAmp Master Mix Kit; Applied Biosystems). mRNA expression was determined using TaqMan RT-qPCR, according to the manufacturer's instructions (Applied Biosystems). All RT-qPCR reactions were performed and analyzed using StepOne software V2.2.2 (Applied Biosystems). […]

5XFAD AD-Tg mice [2] = test: RT-qPCR of hippocampus / brain parenchyma in 5XFAD AD-Tg mice
Experimental: Total RNA of the hippocampal dentate gyrus (DG) was extracted with TRI Reagent (Molecular Research Center) and purified from the lysates using an RNeasy Kit (Qiagen). Total RNA of the choroid plexus was extracted using an RNA MicroPrep Kit (Zymo Research). mRNA (1 μg) was converted into cDNA using a High Capacity cDNA Reverse Transcription Kit (Applied Biosystems). The expression of specific mRNAs was assayed using fluorescence-based quantitative real-time PCR (RT-qPCR). RT-qPCR reactions were performed using Fast-SYBR PCR Master Mix (Applied Biosystems). Quantification reactions were performed in triplicate for each sample using the standard curve method. Peptidylprolyl isomerase A (ppia) was chosen as a reference (housekeeping) gene. The amplification cycles were 95° C. for 5 s, 60° C. for 20 s, and 72° C. for 15 s. At the end of the assay, a melting curve was constructed to evaluate the specificity of the reaction. For ifn-γ and ppia gene analysis, the cDNA was pre-amplified in 14 PCR cycles with non-random PCR primers, thereby increasing the sensitivity of the subsequent real-time PCR analysis, according to the manufacturer's protocol (PreAmp Master Mix Kit; Applied Biosystems). mRNA expression was determined using TaqMan RT-qPCR, according to the manufacturer's instructions (Applied Biosystems). All RT-qPCR reactions were performed and analyzed using StepOne software V2.2.2 (Applied Biosystems). The following TaqMan Assays-on-Demand™ probes were used: Mm02342430_g1 (ppia) and Mm01168134_m1 (ifn-γ).
For all other genes examined, the following primers were used: […]

5XFAD AD-Tg mice [3] = test: Immune cell / mo-Mϕ infiltration of brain in 5XFAD AD-Tg mice (flow cytometry, BM chimeras)
Experimental: Tissue processing and immunohistochemistry were performed on paraffin embedded sectioned mouse (6 μm thick) and human (10 μm thick) brains. For human ICAM-1 staining, primary mouse anti-ICAM (1:20 Abcam; ab2213) antibody was used. Slides were incubated for 10 min with 3% H2O2, and a secondary biotin-conjugated anti-mouse antibody was used, followed by biotin/avidin amplification with Vectastain ABC kit (Vector Laboratories). Subsequently, 3,3′-diaminobenzidine (DAB substrate) (Zytomed kit) was applied; slides were dehydrated and mounted with xylene-based mounting solution. For tissue stainings, mice were transcardially perfused with PBS prior to tissue excision and fixation. CP tissues were isolated under a dissecting microscope (Stemi DV4; Zeiss) from the lateral, third, and fourth ventricles of the brain. For whole mount CP staining, tissues were fixated with 2.5% paraformaldehyde (PFA) for 1 hour at 4° C., and subsequently transferred to PBS containing 0.05% sodium azide. Prior to staining, the dissected tissues were washed with PBS and blocked (20% horse serum, 0.3% Triton X-100, and PBS) for 1 h at room temperature. Whole mount staining with primary antibodies (in PBS containing 2% horse serum and 0.3% Triton X-100), or secondary antibodies, was performed for 1 h at room temperature. Each step was followed by three washes in PBS. The tissues were applied to slides, mounted with Immu-mount (9990402, from Thermo Scientific), and sealed with cover-slips. For staining of sectioned brains, two different tissue preparation protocols (paraffin embedded or microtomed free-floating sections) were applied, as previously described (Baruch et al, 2013; Kunis et al, 2013). The following primary antibodies were used: mouse anti-Aβ (1:300, Covance, #SIG-39320); rabbit anti-GFP (1:100, MBL, #598); rat anti-CD68 (1:300, eBioscience, #14-0681); rat anti-ICAM-1 (1:200, Abcam, #AB2213); goat anti-GFP (1:100, Abcam, #ab6658); rabbit anti-IBA-1 (1:300, Wako, #019-19741); goat anti-IL-10 (1:20, R&D systems, #AF519); rat anti-Foxp3 (1:20, eBioscience, #13-5773-80); rabbit anti-CD3 (1:500, Dako, #IS503); mouse anti-ZO-1, mouse anti-E-Cahedrin, and rabbit anti-Claudin-1 (all 1:100, Invitrogen, #33-9100, #33-4000, #51-9000); rabbit anti-GFAP (1:200, Dako, #Z0334). […] Microscopic analysis, was performed using a fluorescence microscope (E800; Nikon) or laser-scanning confocal microscope (Carl Zeiss, Inc.). The fluorescence microscope was equipped with a digital camera (DXM 1200F; Nikon), and with either a 20×NA 0.50 or 40×NA 0.75 objective lens (Plan Fluor; Nikon). […] For quantification of staining intensity, total cell and background staining was measured using ImageJ software (NIH), and intensity of specific staining was calculated, as previously described (Burgess et al, 2010). […]

[4] = AD-Tg/Foxp3-DTR+ mice, 3 weeks after last DTx injection
[5] = weekly-GA vs untreated AD-Tg mice, age 6 m

| Substance | CP mRNA expression of leukocyte trafficking molecules (icam1, cxcl10, ccl2) (5XFAD AD-Tg mice [1]; AD-Tg/DTR+ vs DTx-treated AD-Tg/DTR− littermates, 1 day after last DTx injection) | foxp3 and il10 mRNA expression in hippocampus (5XFAD AD-Tg mice [2]; [4]) | mRNA expression of pro-inflammatory cytokines il-12p40 and tnf-α in brain parenchyma (5XFAD AD-Tg mice [2]; [4]) | Foxp3+ Tregs among CD4+ T cells accumulated within the brain (5XFAD AD-Tg mice [3]; [4]) | numbers of CD45high/CD11bhigh mo-Mϕ and CD4+ T cells in brain parenchyma (5XFAD AD-Tg mice [3]; [4]) | CP epithelial expression of leukocyte trafficking molecules (icam1, cxcl10, ccl2) (5XFAD AD-Tg mice [1]; weekly-GA, end of 1st or 4th week) | neuroinflammation (hippocampal mRNA) (5XFAD AD-Tg mice [2]; weekly-GA 100 μg s.c. over 4 weeks, 5XFAD AD-Tg mice) | hippocampal mRNA expression of anti-inflammatory cytokines IL-10 and TGF-β (5XFAD AD-Tg mice [2]; [5]) | hippocampal mRNA expression of neurotropic factors IGF-1 and BDNF (5XFAD AD-Tg mice [2]; [5]) | hippocampal mRNA expression of pro-inflammatory cytokines TNF-α, IL-1β and IL-12p40 (5XFAD AD-Tg mice [2]; [5]) | numbers of CD11bhighCD45high-expressing cells in hippocampus (5XFAD AD-Tg mice [3]; 2nd week of weekly-GA regimen, non-chimeric AD-Tg mice) | homing of GFP+ mo-Mϕ to the CP and adjacent ventricular spaces (5XFAD AD-Tg mice [3]; weekly-GA vs vehicle, AD-Tg/CX3CR1GFP/+ BM chimeras) |
| --- | --- | --- | --- | --- | --- | --- | --- | --- | --- | --- | --- | --- |
| Diphtheria toxin [DTx] | elevated mRNA expression | increased expression | reduced mRNA expression levels | marked enrichment | increased numbers; also recorded: elevated numbers | – | – | – | – | – | – | – |
| Glatiramer acetate [GA] | – | – | – | – | – | upregulated | reduced neuroinflammation | elevation | elevation | reduced expression | increased numbers | increased homing |
